Source: patent US8088761B2, “Enzyme inhibitors” (Cancer Research Technology Limited, priority 2005, dated 2012)

What was measured:
[1] = molecular target: T1, Aurora-A (Homo sapiens, UniProt O14965); assay: Filterplate assay for Aurora-A inhibitors; assay type: biochemical; conditions: read-out: IC50 against Aurora-A
T1 sequence (O14965 1-403): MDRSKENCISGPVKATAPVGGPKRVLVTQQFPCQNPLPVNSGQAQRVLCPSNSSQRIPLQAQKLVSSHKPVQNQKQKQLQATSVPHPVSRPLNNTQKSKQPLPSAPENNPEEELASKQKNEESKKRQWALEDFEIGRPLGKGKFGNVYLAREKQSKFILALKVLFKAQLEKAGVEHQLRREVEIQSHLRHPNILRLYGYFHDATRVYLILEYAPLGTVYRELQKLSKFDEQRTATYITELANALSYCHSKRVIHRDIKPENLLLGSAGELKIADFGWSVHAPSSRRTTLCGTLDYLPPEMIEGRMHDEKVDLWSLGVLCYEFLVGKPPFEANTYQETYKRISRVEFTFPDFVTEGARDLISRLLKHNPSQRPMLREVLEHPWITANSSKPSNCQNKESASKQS
Protocol: Filterplate Assay for Identification and Evaluation of Aurora-A Inhibitors
(§1) 40 μl master mix of kinase buffer (50 mM Tris pH 7.5, 10 mM NaCl, 2.5 mM MgCL2, 1 mM DTT, 20 μM ATP, 0.025 μCi/μl ^33P-ATP, and 100 μg/ml MBP was added to a 96-well plate followed by addition of 250 ng of Aurora-A enzyme per well. The plate was shaken for approximately 2 min on a flat-bed plate shaker (Wellmix, Denley, UK) and incubated for 2 hours at room temperature. The reaction was stopped by the addition of 30 μl of 2% orthophosphoric acid. The reaction mixture was then transferred and filtered on the 96-well Multi-Screening Filter Plate (MATAH0P00, MILLIPORE), pre-treated with 50 μl per well of 0.5% orthophosphoric acid. The plate was washed twice with 200 μl of 0.5% orthophosphoric acid and vacuum-dried. 25 μl of scintillant (Microscint™20, PerkinElmer) per well was added and the plate was shaken for 10 min. Finally, the plate was re-sealed with TopSealA and the signal from the filter-bound component was read on TopCount-NXT™ (PerkinElmer Life Sciences UK Ltd., Hounslow, UK).

[2] = molecular target: T2, Aurora-B (Homo sapiens, UniProt Q96GD4); assay: Flashplate assay for Aurora-B inhibitors; assay type: biochemical; conditions: read-out: IC50 against Aurora-B
Protocol: (§2) On this assay 384-well Basic Flashplate® (SMP400E, PerkinElmer) as solid assay platform was used. The plates were coated overnight at 4° C. with […] at 100 μg/ml in PBS buffer and used after being washed twice with PBS. 5 μl of compound in 2% DMSO was added to each well followed by 15 μl master mix of kinase buffer (50 mM Tris pH 7.5, 10 mM NaCl, 2.5 mM MgCl2, 1 mM […], 20 μM ATP, and 0.025 μCi/μl ^33P-ATP). Finally, 250 ng per well of Aurora-A enzyme was added. The plate was shaken for approximately 2 min on a flat-bed plate shaker (Wellmix, Denley, UK) and incubated for 2 hours at room temperature. The reaction was stopped by washing the plate twice on a 16-pin wash (ELX50 BioTek Instruments Ltd., Northstar, Bedford, UK) with 10 mM sodium pyrophosphate. The plate was then read on a TopCount-NX™ (PerkinElmer Life Sciences UK Ltd., Hounslow, UK).
(§3) Flashplate® Assay for Identification and Evaluation of Aurora-B and Aurora-C Inhibitors
(§4) For the determination of the inhibitory activity against Aurora-B or Aurora-C, the same conditions were followed in the assay using Aurora-B or Aurora-C enzymes.

[3] = molecular target: T3, Aurora-C (Homo sapiens, UniProt Q9UQB9); assay: Flashplate assay for Aurora-C inhibitors; assay type: biochemical; conditions: read-out: IC50 against Aurora-C
T3 sequence (Q9UQB9 1-309): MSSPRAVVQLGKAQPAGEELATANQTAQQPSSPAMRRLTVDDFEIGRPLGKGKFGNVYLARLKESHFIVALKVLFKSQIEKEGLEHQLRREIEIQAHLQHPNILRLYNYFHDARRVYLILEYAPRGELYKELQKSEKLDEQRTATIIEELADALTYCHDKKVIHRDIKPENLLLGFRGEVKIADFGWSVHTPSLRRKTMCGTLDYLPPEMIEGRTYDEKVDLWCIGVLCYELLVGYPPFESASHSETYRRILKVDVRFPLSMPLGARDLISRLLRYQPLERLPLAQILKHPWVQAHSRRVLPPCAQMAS
Protocol: as §2, §3, §4

[4] = molecular target: T1, Aurora-A; assay: Flashplate Aurora A enzyme inhibition assay; assay type: biochemical; conditions: Flashplate assay; IC50 range; read-out: Aurora-A inhibition
How it was run: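 This is a radiometric Flashplate format: plates were precoated with DTT, and compound (in 2% DMSO) was mixed with kinase buffer (pH 7.5 Tris, MgCl2, NaCl) containing 1 mM MBP, 20 μM ATP and ^33P-ATP. The reaction was started with 250 ng Aurora-A per well and incubated 2 h at RT. It was then stopped by 10 mM sodium pyrophosphate washing, and plates were scintillation-counted.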

[5] = test system: HCT116 cells; assay: Cell viability assay (MTT) in HCT116 cell line; assay type: cell-based; conditions: Homo sapiens, HCT-116, 72 hrs, IC50 range, read-out: HCT116 cell growth inhibition
How it was run: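 MTT read-out (4 hrs, 37 °C, DMSO extraction) following 72 hrs of treatment with 0-50 μM Aurora inhibitor. HCT116 cells were plated a day earlier and tested in triplicate; IC50 derived from the curve.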

[6] = molecular target: T3, Aurora-C; assay: Filterplate assay for Aurora-C inhibitors; assay type: biochemical; conditions: read-out: IC50 range in respect of Aurora-C
Protocol: as §1
(§5) Filterplate Assay for Identification and Evaluation of Aurora-B and Aurora-C Inhibitors
as §4

[7] = molecular target: T2, Aurora-B; assay: Filterplate assay for Aurora-B inhibitors; assay type: biochemical; conditions: read-out: IC50 range in respect of Aurora-B
Protocol: as §1, §5, §4

T2 sequence (Q96GD4 whole entry): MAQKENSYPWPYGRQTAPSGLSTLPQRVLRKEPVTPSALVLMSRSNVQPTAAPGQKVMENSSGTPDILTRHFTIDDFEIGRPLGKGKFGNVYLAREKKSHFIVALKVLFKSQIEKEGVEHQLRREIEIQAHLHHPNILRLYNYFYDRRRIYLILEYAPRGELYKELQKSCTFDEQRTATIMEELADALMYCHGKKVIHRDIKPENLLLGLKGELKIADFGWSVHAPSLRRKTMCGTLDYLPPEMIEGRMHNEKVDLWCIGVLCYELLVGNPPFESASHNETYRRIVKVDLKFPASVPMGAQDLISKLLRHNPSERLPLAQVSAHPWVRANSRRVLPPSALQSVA

| IC50 [1] [nM] | IC50 [2] [nM] | IC50 [3] [nM] | IC50 [4] [nM] | IC50 [5] [nM] | IC50 [6] [nM] | IC50 [7] [nM] | Structure (SMILES) |
| --- | --- | --- | --- | --- | --- | --- | --- |
| 80 | 110 | 362 | < 500 | < 500 | – | – | CN(C)c1ccc(-c2nc3c(N4CCN(CC(=O)Nc5nccs5)CC4)c(Cl)cnc3[nH]2)cc1 [Example 1, 2-{4-[6-Chloro-2-(4-dimethylamino-phenyl)-3H-imidazo[4,5-b]pyridin-7-yl]-piperazin-1-yl}-N-thiazol-2-yl-acetamide] |
| 70 | 410 | 530 | < 500 | < 500 | – | – | CN(C)c1ccc(-c2nc3c(N4CCN(CC(=O)Nc5nccs5)CC4)c(Br)cnc3[nH]2)cc1 [Example 2, 2-{4-[6-Bromo-2-(4-dimethylamino-phenyl)-3H-imidazo[4,5-b]pyridin-7-yl]-piperazin-1-yl}-N-thiazol-2-yl-acetamide] |
| – | – | – | < 500 | < 500 | < 500 | 500 to 2000 | Cc1nc(CN2CCN(c3c(Br)cnc4[nH]c(-c5ccc(Cn6cccn6)cc5)nc34)CC2)cs1 [Example 162, 4-((4-(2-(4-((1H-Pyrazol-1-yl)methyl)phenyl)-6-bromo-3H-imidazo[4,5-b]pyridin-7-yl)piperazin-1-yl)methyl)-2-methylthiazole] |
